Marks after values point to notes of the source that are not given here.
Legend:
BCRP [1] = target: T1, BCRP (Homo sapiens, UniProt Q9UNQ0); conditions: cited from earlier work
T1 sequence (Q9UNQ0 1-655): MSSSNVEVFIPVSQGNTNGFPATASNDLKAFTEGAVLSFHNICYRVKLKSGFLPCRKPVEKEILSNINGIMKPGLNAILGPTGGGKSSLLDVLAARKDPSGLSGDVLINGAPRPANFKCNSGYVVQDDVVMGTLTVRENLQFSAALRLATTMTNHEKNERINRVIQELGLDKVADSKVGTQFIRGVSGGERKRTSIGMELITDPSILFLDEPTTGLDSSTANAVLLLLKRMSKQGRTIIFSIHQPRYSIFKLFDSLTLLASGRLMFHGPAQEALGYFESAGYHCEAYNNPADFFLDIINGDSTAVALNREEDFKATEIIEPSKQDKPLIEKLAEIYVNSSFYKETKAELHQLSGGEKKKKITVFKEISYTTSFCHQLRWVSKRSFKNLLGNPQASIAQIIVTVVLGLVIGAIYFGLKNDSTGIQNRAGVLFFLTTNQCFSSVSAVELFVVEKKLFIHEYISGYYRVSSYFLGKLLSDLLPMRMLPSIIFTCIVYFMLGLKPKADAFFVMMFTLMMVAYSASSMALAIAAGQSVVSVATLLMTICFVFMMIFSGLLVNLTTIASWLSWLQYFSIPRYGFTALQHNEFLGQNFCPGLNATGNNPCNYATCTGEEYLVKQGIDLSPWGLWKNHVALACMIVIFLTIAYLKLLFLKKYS

[2] = system: transporters at major organ sites; experiment: Prediction of transporter-mediated inhibition / DDI potential; parameters: species or system human; conditions: of 11 transporters; FDA criteria
human OAT1 = target: T2, human OAT1 (Homo sapiens, UniProt Q4U2R8); experiment: cell-based
T2 sequence (Q4U2R8 1-563): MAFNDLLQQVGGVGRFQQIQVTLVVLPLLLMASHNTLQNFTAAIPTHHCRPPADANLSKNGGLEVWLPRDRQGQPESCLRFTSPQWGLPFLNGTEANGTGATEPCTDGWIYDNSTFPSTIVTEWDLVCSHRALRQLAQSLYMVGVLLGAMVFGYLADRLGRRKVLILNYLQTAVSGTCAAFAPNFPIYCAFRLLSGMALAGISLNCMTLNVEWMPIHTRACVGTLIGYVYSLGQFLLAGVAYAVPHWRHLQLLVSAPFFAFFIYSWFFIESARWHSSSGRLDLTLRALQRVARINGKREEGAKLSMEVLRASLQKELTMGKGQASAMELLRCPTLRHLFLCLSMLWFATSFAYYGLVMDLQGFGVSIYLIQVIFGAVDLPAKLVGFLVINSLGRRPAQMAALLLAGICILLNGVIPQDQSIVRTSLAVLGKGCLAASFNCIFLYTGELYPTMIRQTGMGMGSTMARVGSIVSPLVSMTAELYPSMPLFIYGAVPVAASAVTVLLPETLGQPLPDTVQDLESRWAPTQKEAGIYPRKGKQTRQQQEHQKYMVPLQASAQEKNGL

human MATE1 = target: T3, human MATE1 (Homo sapiens, UniProt Q96FL8); experiment: cell-based
T3 sequence (Q96FL8 1-570): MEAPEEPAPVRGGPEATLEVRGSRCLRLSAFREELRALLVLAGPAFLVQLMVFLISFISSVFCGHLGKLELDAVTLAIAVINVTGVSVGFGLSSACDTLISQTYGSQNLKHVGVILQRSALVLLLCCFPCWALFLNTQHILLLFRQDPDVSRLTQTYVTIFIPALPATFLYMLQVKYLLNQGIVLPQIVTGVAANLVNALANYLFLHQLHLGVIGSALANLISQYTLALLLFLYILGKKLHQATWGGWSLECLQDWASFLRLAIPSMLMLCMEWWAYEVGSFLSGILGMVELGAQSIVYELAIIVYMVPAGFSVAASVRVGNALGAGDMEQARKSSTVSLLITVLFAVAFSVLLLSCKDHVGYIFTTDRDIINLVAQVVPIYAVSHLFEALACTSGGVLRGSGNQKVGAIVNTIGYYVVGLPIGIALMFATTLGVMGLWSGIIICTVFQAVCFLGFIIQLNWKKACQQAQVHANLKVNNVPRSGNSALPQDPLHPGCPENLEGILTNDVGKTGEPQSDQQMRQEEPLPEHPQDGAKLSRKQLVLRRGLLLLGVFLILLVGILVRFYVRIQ

human OATP2B1 = target: T4, human OATP2B1 (Homo sapiens, UniProt O94956); experiment: cell-based; conditions: IC50 OATP2B1, experimental, mean ± SD; stable cells; substrate ES
T4 sequence (O94956 1-709): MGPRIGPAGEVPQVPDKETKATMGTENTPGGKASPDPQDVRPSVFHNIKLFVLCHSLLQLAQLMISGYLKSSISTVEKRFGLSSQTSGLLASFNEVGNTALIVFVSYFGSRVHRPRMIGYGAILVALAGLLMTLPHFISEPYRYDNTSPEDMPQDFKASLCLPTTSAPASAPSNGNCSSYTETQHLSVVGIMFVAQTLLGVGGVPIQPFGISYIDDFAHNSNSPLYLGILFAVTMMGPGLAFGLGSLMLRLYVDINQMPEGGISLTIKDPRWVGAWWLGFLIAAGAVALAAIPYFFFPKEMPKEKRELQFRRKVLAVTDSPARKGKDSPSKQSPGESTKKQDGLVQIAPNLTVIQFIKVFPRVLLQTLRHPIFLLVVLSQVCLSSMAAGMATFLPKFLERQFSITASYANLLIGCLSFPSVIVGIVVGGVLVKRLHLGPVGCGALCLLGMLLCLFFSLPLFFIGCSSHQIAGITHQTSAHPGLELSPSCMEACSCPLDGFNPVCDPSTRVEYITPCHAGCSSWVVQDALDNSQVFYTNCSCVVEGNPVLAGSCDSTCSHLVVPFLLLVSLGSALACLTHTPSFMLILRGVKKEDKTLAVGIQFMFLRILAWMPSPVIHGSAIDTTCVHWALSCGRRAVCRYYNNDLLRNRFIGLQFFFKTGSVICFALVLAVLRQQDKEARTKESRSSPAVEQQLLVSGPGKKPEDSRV

human OCT1 [3] = target: T5, human OCT1 (Homo sapiens, UniProt O15245); experiment: cell-based
T5 sequence (O15245 1-554): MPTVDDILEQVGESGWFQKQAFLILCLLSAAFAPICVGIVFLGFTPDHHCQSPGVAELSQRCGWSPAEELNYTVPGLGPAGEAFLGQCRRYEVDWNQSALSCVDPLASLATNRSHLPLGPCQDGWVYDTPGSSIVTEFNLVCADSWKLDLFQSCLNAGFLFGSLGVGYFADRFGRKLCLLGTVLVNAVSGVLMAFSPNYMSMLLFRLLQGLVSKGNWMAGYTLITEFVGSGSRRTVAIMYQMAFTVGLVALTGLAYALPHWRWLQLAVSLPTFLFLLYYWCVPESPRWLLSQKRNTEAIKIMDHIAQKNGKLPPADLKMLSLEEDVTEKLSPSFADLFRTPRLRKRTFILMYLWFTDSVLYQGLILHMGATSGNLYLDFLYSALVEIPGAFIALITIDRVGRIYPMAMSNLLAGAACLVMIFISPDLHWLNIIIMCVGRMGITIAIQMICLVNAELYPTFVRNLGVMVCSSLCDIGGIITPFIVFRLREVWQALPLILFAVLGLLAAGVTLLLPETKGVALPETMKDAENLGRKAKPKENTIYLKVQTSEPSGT

P-gp = P-gp (Homo sapiens, UniProt P08183); experiment: biochemical
Sequence of P-gp (P08183 whole entry): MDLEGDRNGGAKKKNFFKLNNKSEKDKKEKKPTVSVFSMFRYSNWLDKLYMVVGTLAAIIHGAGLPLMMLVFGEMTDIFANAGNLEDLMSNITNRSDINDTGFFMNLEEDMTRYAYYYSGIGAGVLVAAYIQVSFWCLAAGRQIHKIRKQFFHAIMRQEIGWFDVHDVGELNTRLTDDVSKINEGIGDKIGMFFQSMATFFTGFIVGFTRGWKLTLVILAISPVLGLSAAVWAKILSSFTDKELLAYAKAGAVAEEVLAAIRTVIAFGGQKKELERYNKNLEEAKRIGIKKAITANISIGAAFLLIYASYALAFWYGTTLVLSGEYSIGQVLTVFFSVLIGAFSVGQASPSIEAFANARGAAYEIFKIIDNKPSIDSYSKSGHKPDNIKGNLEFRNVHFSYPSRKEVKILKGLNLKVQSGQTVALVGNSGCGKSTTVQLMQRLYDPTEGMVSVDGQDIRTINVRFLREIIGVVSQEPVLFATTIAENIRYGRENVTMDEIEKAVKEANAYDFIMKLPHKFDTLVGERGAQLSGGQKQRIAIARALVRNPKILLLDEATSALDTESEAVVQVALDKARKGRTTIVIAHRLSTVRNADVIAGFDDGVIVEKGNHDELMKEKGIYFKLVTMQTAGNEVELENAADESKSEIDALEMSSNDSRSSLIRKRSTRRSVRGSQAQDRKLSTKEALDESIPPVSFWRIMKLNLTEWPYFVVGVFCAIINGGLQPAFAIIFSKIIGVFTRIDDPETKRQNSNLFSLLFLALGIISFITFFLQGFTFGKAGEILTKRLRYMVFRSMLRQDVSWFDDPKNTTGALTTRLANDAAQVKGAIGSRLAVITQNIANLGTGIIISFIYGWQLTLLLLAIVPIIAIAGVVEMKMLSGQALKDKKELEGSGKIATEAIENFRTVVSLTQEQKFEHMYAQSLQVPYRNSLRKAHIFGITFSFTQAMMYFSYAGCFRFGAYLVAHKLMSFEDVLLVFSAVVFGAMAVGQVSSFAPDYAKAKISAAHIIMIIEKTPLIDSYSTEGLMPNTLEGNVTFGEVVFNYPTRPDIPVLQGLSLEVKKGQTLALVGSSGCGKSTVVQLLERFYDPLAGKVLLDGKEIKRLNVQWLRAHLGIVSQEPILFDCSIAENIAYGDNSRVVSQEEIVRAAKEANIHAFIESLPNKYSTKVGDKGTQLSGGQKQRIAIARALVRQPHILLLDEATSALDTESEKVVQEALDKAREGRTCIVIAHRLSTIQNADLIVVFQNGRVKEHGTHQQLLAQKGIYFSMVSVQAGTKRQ

human MATE2 = human MATE2 (Homo sapiens, UniProt Q86VL8); experiment: cell-based
Sequence of human MATE2 (Q86VL8 1-566 isoform Q86VL8-3): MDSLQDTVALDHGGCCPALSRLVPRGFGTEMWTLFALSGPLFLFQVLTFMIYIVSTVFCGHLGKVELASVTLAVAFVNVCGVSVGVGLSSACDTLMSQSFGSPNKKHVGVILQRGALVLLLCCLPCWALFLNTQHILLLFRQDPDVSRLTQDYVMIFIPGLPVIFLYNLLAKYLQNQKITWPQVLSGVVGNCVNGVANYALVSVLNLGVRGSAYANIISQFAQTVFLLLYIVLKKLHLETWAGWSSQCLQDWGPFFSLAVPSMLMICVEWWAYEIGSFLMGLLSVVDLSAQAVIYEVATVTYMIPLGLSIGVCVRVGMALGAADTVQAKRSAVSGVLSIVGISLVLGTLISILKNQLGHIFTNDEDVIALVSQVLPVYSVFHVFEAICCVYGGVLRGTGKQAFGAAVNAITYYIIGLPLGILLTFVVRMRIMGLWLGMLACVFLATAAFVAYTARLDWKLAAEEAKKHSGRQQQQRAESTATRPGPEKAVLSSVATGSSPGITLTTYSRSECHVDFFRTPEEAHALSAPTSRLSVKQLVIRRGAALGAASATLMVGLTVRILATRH

BCRP [4] = target: T1, BCRP; experiment: biochemical
human OATP1B1 = target: T6, human OATP1B1 (Homo sapiens, UniProt Q9Y6L6); conditions: inhibits EG at one-tenth (or lower) the concentration that inhibits ES
T6 sequence (Q9Y6L6 1-691): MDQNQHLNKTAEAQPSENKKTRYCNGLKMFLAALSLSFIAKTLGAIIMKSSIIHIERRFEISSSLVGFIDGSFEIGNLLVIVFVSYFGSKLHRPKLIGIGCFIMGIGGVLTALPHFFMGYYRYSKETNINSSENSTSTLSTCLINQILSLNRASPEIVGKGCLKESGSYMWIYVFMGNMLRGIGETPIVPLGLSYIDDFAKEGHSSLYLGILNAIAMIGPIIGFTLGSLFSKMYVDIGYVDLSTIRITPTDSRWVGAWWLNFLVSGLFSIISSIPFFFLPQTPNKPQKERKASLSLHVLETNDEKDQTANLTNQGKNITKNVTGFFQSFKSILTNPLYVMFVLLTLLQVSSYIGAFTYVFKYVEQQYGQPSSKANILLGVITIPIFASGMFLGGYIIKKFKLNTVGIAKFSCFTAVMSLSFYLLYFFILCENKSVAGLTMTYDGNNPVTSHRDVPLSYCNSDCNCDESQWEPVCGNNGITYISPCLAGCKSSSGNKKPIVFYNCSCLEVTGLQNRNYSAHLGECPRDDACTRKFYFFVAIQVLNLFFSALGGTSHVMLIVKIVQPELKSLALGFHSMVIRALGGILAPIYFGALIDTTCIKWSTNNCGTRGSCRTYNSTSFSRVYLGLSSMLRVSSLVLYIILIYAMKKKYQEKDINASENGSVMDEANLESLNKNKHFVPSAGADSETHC

human OAT3 [5] = target: T7, human OAT3 (Homo sapiens, UniProt Q8TCC7); conditions: human
T7 sequence (Q8TCC7 1-542): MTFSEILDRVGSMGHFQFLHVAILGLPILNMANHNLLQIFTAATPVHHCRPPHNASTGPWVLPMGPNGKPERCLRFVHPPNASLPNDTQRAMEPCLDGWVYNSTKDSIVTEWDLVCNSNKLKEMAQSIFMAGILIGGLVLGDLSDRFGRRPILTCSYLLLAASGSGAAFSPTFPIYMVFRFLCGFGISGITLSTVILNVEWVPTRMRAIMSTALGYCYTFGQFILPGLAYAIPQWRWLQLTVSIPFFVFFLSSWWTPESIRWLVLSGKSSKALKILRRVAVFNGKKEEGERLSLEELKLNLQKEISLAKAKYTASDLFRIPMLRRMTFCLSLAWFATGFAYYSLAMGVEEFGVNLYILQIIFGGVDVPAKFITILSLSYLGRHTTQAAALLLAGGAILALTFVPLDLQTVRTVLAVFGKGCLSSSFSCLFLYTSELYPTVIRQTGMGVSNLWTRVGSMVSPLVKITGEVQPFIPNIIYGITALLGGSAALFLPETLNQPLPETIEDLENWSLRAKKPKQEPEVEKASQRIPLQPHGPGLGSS

[6] = known in vivo P-gp inhibitor; cited from earlier work
human OAT3 [7] = target: T7, human OAT3; experiment: cell-based
human OCT1 [8] = target: T5, human OCT1; conditions: human

| Structure (SMILES) | inhibition of BCRP (in words) (BCRP [1]) | No. of transporters at major organ sites inhibited at clinical concentrations [2] | IC50 (human OAT1) | IC50 (human MATE1) | IC50 (human OATP2B1) | IC50 (human OCT1 [3]) | IC50 (P-gp) | IC50 (human MATE2) | IC50 (BCRP [4]) | potency difference of the inhibitor for [3H]-EG vs [3H]-ES as OATP1B1 probes (human OATP1B1) | Cu,max/IC50 OAT3 (human OAT3 [5]) | effect on plasma levels of P-gp substrates [6] | IC50 (human OAT3 [7]) | Iu,in,max/IC50 OCT1 (human OCT1 [8]) |
| --- | --- | --- | --- | --- | --- | --- | --- | --- | --- | --- | --- | --- | --- | --- |
| CCCc1nc(C)c2c(=O)[nH]c(-c3cc(S(=O)(=O)N4CCN(CC)CC4)ccc3OCC)nn12 [vardenafil] | weak inhibitors of BCRP | – | – | – | – | – | – | – | – | – | – | – | – | – |
| Cc1oncc1C(=O)Nc1ccc(C(F)(F)F)cc1 [Leflunomide] | – | 2 | > 100 µM | 9.5 ± 5.5 µM | 81.9 ± 36.1 µM | > 100 µM | > 100 µM | – | – | – | – | – | – | – |
| CCCCc1nc(Cl)c(CO)n1Cc1ccc(-c2ccccc2-c2nn[nH]n2)cc1 [Losartan] | – | 4 | – | – | 2.5 ± 0.7 µM | > 100 µM | > 100 µM | > 100 µM | 4.8 ± 1.1 µM | > 10 fold | 0.02 ^a | – | – | – |
| CC[C@H]1OC(=O)[C@H](C)[C@@H](O[C@H]2C[C@@](C)(OC)[C@@H](O)[C@H](C)O2)[C@H](C)[C@@H](O[C@@H]2O[C@H](C)C[C@H](N(C)C)[C@H]2O)[C@](C)(O)C[C@@H](C)CN(C)[C@H](C)[C@@H](O)[C@]1(C)O [Azithromycin] | – | 1 | > 50 µM | > 50 µM | – | > 50 µM | 18 µM | > 50 µM | > 50 µM | – | – | increases plasma levels of the non‐sedating antihistamine, fexofenadine, and the anticoagulant, ximelagatran | > 50 µM | – |
| CN1CC(=O)N2[C@H](c3ccc4c(c3)OCO4)c3[nH]c4ccccc4c3C[C@@H]2C1=O [tadalafil] | weak inhibitors of BCRP | – | – | – | – | – | – | – | – | – | – | – | – | – |
| COc1ccc2cc1Oc1ccc(cc1)C[C@H]1c3cc(c(OC)cc3CCN1C)Oc1c(OC)c(OC)cc3c1[C@H](C2)N(C)CC3 [Tetrandrine] | – | 1 | > 10 µM | 1.2 ± 0.2 µM | – | 8.6 µM | 3.8 ± 1.1 µM | > 10 µM | > 10 µM | – | – | – | > 10 µM | 0.02 |

Source: article PMC8217266 (Clinical Pharmacology and Therapeutics, 2021)
